The source made the active and inactive calls.
Experiments:
[1] = LGR2 antagonists, dose response, cell-based, HEK293, CRE-luciferase reporter, cherry pick, set 2 (AID 743343); type: functional;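 also: transfected cells were stimulated with diluted bursicon conditioned medium after compound addition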
[2] = A549 cell cytotoxicity, dose response, cytotoxicity control, plate reader, cherry-pick, antagonist series (AID 743412); type: functional, cell-based
[3] = tested on: HEK293; assay: inhibitors of LMP1-driven NF-kB reporter, dose response, cell-based, HEK293, luciferase, cherry-pick (AID 588343); type: functional; settings: Homo sapiens
[4] = target: Prothrombin (Homo sapiens, UniProt P00734); assay: Thrombin 1536 HTS Dose Response Confirmation. [Related pubchem assays: 1046 (Thrombin 1536 HTS; hits were confirmed in this assay)]; type: functional
[5] = HepG2 cell cytotoxicity, dose response, cytotoxicity control, plate reader, cherry-pick, antagonist series (AID 743416); type: functional, cell-based
[6] = MC4R antagonists, dose response, counter-screen for LGR2 antagonist project, cell-based, plate reader, cherry pick (AID 743444); type: functional;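 also: transfected HEK 293 cells stimulated with alpha-MSH peptide; potency of inhibitors of the alpha-MSH evoked signal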
[7] = target: T1, fMet-Leu-Phe receptor (Homo sapiens, UniProt P21462); assay: FPR ligands, dose response (AID 519); type: functional
T1 sequence (P21462 whole entry): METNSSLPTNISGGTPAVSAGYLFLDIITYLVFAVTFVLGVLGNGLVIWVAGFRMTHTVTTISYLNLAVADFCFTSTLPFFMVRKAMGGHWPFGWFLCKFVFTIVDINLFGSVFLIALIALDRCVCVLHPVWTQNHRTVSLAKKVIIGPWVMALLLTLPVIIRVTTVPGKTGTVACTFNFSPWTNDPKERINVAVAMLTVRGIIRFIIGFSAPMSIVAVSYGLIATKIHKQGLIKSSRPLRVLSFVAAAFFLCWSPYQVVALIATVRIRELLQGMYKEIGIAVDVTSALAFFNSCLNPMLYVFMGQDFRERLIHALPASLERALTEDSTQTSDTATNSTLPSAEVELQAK

[8] = HEp-2 cell cytotoxicity, dose response, cytotoxicity control for RSV inhibitor project, HTS (AID 2410); type: functional; settings: human respiratory syncytial virus
[9] = target: T2, Bcl-2-related protein A1 (Mus musculus, UniProt Q07440); assay: Bfl-1 inhibitors blocking BH3 peptide binding, confirmation, biochemical, TR-FRET, mouse Bfl-1 (AID 621);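 also: TR-FRET binding of GST-Bfl-1 to FITC-labelled Bid peptide via terbium antibody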
T2 sequence (Q07440 whole entry): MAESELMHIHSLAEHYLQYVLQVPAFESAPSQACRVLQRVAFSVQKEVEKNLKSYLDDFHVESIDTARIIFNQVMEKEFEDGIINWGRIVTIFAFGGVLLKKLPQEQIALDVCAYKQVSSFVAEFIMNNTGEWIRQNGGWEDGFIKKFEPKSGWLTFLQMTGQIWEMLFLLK

[10] = target: T2, Bcl-2-related protein A1; assay: Bfl-1 binding inhibitors, SAR follow-up, biochemical, fluorescence polarization (AID 1070)
[11] = target: Glyceraldehyde-3-phosphate dehydrogenase (Homo sapiens, UniProt P04406)
Chain of Glyceraldehyde-3-phosphate dehydrogenase (P04406 whole entry): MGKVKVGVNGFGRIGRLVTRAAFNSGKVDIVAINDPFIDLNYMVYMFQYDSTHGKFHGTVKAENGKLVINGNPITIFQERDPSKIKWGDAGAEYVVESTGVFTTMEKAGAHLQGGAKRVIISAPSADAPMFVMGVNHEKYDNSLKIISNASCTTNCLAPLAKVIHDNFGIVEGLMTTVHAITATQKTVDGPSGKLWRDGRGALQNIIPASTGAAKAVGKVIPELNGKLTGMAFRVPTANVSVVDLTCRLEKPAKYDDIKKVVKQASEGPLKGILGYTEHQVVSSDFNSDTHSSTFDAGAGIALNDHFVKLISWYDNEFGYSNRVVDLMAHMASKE

[12] = target: T3, Cytochrome P450 2D6 (Homo sapiens, UniProt P10635); assay: qHTS Assay for Inhibitors and Substrates of Cytochrome P450 2D6. [Related pubchem assays: 410 ]; type: ADME; settings: read-out: Potency
T3 sequence (P10635 whole entry): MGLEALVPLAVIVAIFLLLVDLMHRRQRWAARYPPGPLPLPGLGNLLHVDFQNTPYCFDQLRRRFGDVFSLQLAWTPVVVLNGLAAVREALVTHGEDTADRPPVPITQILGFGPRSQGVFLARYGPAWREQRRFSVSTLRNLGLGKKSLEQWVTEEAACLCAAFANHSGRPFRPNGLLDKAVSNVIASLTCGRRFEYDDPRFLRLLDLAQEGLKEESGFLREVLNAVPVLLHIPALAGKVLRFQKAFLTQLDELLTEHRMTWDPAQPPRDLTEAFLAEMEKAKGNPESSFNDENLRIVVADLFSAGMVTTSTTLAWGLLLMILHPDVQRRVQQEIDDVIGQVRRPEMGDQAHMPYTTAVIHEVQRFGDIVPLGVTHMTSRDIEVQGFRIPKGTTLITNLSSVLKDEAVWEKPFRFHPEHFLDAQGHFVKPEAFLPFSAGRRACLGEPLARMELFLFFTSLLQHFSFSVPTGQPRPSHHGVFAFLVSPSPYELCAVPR

[13] = target: T3, Cytochrome P450 2D6
[14] = target: T4, Short transient receptor potential channel 4 (Mus musculus, UniProt Q9QUQ5); assay: mouse TRPC4 channel inhibitors, dose response, cell-based, HEK293 TRPC4/mu-opioid, Fluo-4 calcium (AID 434942); type: functional;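 also: potency of inhibitors blocking the TRPC4 calcium response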
T4 sequence (Q9QUQ5 whole entry): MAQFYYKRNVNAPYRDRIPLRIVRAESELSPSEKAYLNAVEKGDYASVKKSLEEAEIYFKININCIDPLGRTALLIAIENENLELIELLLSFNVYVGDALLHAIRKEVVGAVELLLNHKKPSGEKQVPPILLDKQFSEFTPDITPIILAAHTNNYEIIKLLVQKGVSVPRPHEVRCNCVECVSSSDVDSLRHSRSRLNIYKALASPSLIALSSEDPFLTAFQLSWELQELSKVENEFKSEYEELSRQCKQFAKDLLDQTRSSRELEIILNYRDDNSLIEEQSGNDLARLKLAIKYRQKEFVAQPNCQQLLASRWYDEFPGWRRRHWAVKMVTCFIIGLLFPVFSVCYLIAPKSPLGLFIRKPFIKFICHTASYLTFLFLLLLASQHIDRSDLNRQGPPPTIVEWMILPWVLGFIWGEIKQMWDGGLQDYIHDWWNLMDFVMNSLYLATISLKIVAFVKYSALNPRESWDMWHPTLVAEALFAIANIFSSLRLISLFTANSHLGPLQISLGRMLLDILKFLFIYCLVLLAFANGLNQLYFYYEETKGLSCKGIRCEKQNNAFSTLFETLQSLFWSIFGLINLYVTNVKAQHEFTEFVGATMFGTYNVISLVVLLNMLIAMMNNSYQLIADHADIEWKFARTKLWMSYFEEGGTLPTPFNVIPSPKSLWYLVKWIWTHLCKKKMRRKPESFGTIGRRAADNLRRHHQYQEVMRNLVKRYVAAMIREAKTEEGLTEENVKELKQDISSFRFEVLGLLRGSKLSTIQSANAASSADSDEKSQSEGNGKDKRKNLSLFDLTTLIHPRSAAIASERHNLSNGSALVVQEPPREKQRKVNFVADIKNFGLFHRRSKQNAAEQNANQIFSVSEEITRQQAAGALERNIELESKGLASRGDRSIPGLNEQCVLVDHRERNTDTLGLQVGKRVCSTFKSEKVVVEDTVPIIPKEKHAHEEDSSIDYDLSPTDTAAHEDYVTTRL

[15] = target: Cytochrome P450 3A4 (Homo sapiens, UniProt P08684);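 also: CYP3A4 tested as one member of a cytochrome P450 panel screen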
Chain of Cytochrome P450 3A4 (P08684 whole entry): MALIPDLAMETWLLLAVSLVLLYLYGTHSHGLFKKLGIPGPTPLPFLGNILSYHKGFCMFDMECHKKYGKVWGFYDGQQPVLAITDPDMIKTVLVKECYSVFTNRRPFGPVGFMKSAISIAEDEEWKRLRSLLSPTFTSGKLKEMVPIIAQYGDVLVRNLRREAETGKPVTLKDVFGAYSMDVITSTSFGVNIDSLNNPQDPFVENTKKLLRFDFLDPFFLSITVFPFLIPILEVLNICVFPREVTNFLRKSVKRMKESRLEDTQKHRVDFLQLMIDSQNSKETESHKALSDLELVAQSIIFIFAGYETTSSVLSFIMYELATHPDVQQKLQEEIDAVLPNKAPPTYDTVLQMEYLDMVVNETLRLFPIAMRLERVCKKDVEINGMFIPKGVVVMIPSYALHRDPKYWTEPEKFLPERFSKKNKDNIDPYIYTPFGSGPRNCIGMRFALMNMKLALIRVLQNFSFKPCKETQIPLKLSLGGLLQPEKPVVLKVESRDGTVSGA

[16] = ADAM10 protease inhibitors, dose response, selectivity assay for ADAM17 exosite inhibitor project, biochemical, FRET peptide substrate, recombinant human ADAM10 (AID 743259);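 also: ADAM10 enzyme cleaving a FRET peptide substrate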
[17] = target: Disintegrin and metalloproteinase domain-containing protein 17 (Homo sapiens, UniProt P78536); assay: exosite inhibitors of ADAM17, dose response, biochemical (AID 743260)
Chain of Disintegrin and metalloproteinase domain-containing protein 17 (P78536 whole entry, the tested form may be a part): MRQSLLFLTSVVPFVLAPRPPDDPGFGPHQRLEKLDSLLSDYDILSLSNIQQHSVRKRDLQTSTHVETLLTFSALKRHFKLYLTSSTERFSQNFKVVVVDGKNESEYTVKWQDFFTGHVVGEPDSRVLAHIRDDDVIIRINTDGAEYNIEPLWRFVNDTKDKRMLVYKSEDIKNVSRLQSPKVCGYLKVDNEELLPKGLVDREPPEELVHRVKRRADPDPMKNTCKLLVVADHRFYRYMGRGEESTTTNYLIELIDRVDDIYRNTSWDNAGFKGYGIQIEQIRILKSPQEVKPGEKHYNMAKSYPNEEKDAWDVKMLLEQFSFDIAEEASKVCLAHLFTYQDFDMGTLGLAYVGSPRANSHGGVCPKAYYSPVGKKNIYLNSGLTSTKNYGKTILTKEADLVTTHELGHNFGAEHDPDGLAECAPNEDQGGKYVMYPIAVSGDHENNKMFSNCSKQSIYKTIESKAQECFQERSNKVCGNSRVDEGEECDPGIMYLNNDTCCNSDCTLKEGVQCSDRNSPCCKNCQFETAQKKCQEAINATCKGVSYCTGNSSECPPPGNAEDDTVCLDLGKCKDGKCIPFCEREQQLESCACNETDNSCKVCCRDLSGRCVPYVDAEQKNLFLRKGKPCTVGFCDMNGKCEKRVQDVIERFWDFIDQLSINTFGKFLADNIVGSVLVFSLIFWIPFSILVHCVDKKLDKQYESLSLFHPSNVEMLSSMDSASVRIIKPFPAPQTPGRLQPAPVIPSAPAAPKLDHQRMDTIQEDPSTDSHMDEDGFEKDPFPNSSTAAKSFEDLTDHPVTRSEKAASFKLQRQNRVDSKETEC

[18] = target: Cytochrome P450 2C9 (Homo sapiens, UniProt P11712); settings: Potency
Chain of Cytochrome P450 2C9 (P11712 whole entry): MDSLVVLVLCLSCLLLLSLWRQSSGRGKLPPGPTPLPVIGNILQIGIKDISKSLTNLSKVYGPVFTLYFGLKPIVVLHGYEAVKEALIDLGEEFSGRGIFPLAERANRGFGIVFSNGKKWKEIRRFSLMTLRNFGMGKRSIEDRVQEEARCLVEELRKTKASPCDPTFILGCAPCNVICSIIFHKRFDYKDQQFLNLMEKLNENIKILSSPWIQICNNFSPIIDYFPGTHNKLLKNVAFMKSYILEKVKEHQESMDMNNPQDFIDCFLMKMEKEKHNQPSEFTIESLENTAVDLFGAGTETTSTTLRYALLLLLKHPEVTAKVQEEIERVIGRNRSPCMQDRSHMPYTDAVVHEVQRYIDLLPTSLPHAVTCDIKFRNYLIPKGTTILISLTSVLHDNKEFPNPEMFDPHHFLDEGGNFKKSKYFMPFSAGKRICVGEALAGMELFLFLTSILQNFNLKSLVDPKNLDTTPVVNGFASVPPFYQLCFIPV

[19] = target: Eukaryotic translation initiation factor 4E (Mus musculus, UniProt P63073); assay: eIF4E–eIF4G protein interaction inhibitors, dose response, biochemical, TR-FRET (AID 855); type: functional;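 also: potency for disrupting eIF4E binding to eIF4GI seen as loss of FRET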
Chain of Eukaryotic translation initiation factor 4E (P63073 whole entry): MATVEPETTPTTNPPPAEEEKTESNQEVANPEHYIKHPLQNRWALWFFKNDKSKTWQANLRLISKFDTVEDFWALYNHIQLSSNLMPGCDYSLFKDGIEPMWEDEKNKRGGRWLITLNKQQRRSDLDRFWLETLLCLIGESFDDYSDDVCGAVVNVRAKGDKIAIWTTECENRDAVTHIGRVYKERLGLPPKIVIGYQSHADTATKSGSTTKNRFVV

[20] = Vero cell cytotoxicity, dose response, cytotoxicity control for Vif-APOBEC3G degradation inhibitor project, Vero cells (AID 1117358); type: functional; settings: Human immunodeficiency virus 1, Vero
[21] = tested on: H9c2; assay: cells; type: functional, cell-based; settings: Rattus norvegicus, H9c2, Myocardium;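 also: confirmatory concentration-response retest of ultra-high-throughput screening hits for modulation of myocardial damage; cell death induced by hydrogen peroxide oxidative stress; compound pretreatment for 60 min then peroxide exposure for 2 h; potency is for protecting the cells against peroxide damage rather than for killing them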
[22] = cells; type: functional, cell-based
[23] = target: T5, Trace amine-associated receptor 1 (Homo sapiens, UniProt Q96RJ0); assay: Counterscreen for agonists of the human trace amine associated receptor 1 (hTAAR1): Fluorescence-based cell-based high throughput dose response assay to identify hTAAR1 agonist that also desensitize TAAR1 receptor response.; type: functional
T5 sequence (Q96RJ0 whole entry): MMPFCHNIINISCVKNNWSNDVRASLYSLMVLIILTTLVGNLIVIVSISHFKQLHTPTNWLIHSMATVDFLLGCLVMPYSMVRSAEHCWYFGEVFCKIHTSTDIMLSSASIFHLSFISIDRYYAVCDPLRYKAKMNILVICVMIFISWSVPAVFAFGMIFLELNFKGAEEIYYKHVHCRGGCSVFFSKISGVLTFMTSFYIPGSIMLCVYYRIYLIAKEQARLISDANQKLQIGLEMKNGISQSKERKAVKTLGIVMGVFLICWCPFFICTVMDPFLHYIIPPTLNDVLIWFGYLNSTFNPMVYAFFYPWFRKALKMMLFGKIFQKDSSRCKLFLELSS

[24] = cells; type: functional, cell-based; remark: listed apart in the source
[25] = target: T5, Trace amine-associated receptor 1; assay: Fluorescence-based cell-based high throughput dose response assay to identify agonists of the human trace amine associated receptor 1 (TAAR1).; type: functional
[26] = cytotoxicity in HEK-293T cells, dose response, cytotoxicity control for TCR NF-kB inhibitor project, luminescence, T-cell screen hits (AID 489026); type: functional, cell-based;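 also: cells exposed to compound about 14 hours before the viability readout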
[27] = IGROV1 ovarian cancer cell cytotoxicity, dose response, PAX8 inhibitor project, plate reader, dry powder samples (AID 743043); type: functional, cell-based; settings: IGROV-1
[28] = NIH:OVCAR-3 ovarian cancer cell cytotoxicity, dose response, PAX8 inhibitor project, plate reader, dry powder samples (AID 743044); type: functional, cell-based
[29] = target: Paired box protein Pax-8 (Homo sapiens, UniProt Q06710); assay: inhibitors of PAX8-driven TPO luciferase reporter, dose response, RMG-I cells, cherry-pick (AID 687027); type: functional, cell-based;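 also: luciferase reporter driven by Pax8 target thyroperoxidase promoter measured by SteadyGlo luminescence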
Chain of Paired box protein Pax-8 (Q06710 whole entry): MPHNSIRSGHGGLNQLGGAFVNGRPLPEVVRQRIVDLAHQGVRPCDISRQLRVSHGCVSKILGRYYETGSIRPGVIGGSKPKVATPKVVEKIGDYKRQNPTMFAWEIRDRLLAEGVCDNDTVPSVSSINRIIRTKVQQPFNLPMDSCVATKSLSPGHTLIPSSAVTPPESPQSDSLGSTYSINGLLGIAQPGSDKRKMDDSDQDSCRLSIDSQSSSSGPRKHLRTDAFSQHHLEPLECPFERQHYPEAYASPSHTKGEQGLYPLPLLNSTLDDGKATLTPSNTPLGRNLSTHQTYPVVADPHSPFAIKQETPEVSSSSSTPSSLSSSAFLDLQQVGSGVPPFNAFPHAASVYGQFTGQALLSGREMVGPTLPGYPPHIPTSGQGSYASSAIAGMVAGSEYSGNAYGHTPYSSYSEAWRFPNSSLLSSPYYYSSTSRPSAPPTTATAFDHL

O=C(Nc1nc2cc3c(cc2s1)OCO3)c1ccco1
AC50 [1]: 4.2 µM (active)
AC50 [2]: > 52 µM (inactive)
AC50 [3]: 1.57 µM (active)
IC50 [4]: 9.57 µM (active)
AC50 [5]: > 52 µM (inactive)
AC50 [6]: 4.79 µM (active)

Cc1ccc(NC(=O)C2CCCN2S(=O)(=O)c2cccc3cccnc23)cc1F (stereo unspecified)
Ki [7]: > 66.7 µM (inactive)
CC50 [8]: 39.4 µM (active)

O=C1C(Cl)=C(N2CCOCC2)C(=O)N1c1cc(Cl)cc(Cl)c1
IC50 [9]: 1.33 µM (active)
IC50 [10]: 1.63 µM (active)
IC50 [11]: > 10 µM (inconclusive)

COc1cccc(CN(C)C(=O)CCc2nnc(-c3ccsc3)o2)c1
IC50 [4]: > 50 µM (not active)

c1ccc(Nc2cc(-c3ccoc3)ncn2)cc1
AC50 [12]: 20 µM (inconclusive)

COCC(=O)n1nc(-c2ccccc2)nc1NCc1ccccc1
IC50 [4]: 0.246 µM (active)

CC(C)(C)c1cc2cccnc2n1Cc1ccccc1
AC50 [13]: 0.501 µM (inconclusive)
EC50 [14]: 2.11 µM (active)
AC50 [15]: 15.8 µM (inconclusive)

COc1ccc(NS(=O)(=O)c2cc(NC(=O)c3cccs3)ccc2N2CCCC2)cc1
IC50 [16]: > 69.5 µM (inactive)
IC50 [17]: > 69.5 µM (inactive)

C=C1C(=O)O[C@H]2C[C@@]3(C)CCCC(=C)[C@@H]3C[C@H]12
AC50 [18]: 39.8 µM (inconclusive)
AC50 [12]: 10 µM (inconclusive)

CC(C)[C@@H](CC(=O)N[C@@H]1CCCC[C@H]1C(=O)N[C@H](CC(=O)N[C@@H](CCC(=O)O)CC(=O)O)Cc1ccccc1)NC(=O)C[C@H](Cc1ccccc1)NC(=O)[C@@H]1CNCC[C@H]1N
AC50 [18]: 6.31 µM (inconclusive)

O=C(c1ccccc1)N(Nc1ccccc1)c1ccccc1
IC50 [19]: 50 µM (inactive)

CN1C(=O)CSc2ccc(NC(=O)NCc3cccnc3)cc21
CC50 [20]: > 40 µM (active)

C=CC1=C(C)C2=NC/1=C\C1=[N+]3[Zn-2][N+]4=C(/C=C5N=C(/C=C3/C(CCC(=O)O)=C1C)C(CCC(=O)O)=C\5C)C(C)=C(C=C)/C4=C/2
AC50 [18]: 39.8 µM (inconclusive)
AC50 [12]: 25.1 µM (inconclusive)

O=C1C(Cl)=C(Cl)C(=O)N1c1ccc(C(F)(F)F)cc1
IC50 [9]: 1.46 µM (active)
IC50 [10]: 0.999 µM (active)
IC50 [11]: > 100 µM (not active)

O=C(C1=C(O)C(=O)N(c2ncccn2)C1c1ccc(Cl)cc1)c1ccco1 (stereo unspecified)
Ki [7]: > 66.7 µM (inactive)

Cc1ccc(C(=O)OC2CCS(=O)(=O)c3sccc32)cc1 (stereo unspecified)
CC50 [20]: 32.7 µM (active)

O=c1c2ccccc2c(-c2ccccc2)nn1-c1cc(Cl)ccc1[N+](=O)[O-]
CC50 [20]: > 40 µM (active)

Clc1ccc(-n2nnc(-c3cccnc3)n2)cn1
IC50 [9]: > 100 µM (not active)
IC50 [10]: > 100 µM (not active)

O=C1C2CC=CCC2C(=O)N1c1nc(-c2ccco2)n[nH]1 (stereo unspecified)
IC50 [11]: > 100 µM (not active)

COc1ccc2nc(O)c(-c3nnn(-c4ccc(F)cc4)n3)cc2c1
IC50 [9]: > 100 µM (not active)
IC50 [10]: > 100 µM (not active)
IC50 [21]: 37.1 µM (inactive)

CC1Oc2ccccc2N(Cc2ccccc2Cl)C1=O (stereo unspecified)
Ki [7]: > 66.7 µM (inactive)

COc1cc(SC)ccc1C(=O)NCCOc1ccc(C)c(C)c1
IC50 [16]: 27.5 µM (inactive)
IC50 [17]: > 69.5 µM (inactive)

O=C(Nc1ccccc1)Nc1ccncc1
EC50 [22]: > 29.9 µM (inactive)
IC50 [23]: 7.05 µM (active)
IC50 [24]: > 29.9 µM (inactive)
EC50 [25]: 1.02 µM (active)

O=C(C[n+]1ccccc1)Nc1nc2ccccc2s1
IC50 [16]: > 69.5 µM (inactive)
IC50 [17]: > 69.5 µM (inactive)

COc1ccc(-n2nnnc2-c2ccccc2)cc1
IC50 [26]: > 80 µM (inactive)
CC50 [20]: > 40 µM (active)

CCCCN(Cc1ccccc1)S(=O)(=O)c1cc2c(cc1Br)CC(C)N2C(C)=O (stereo unspecified)
IC50 [16]: 12.6 µM (inactive)
AC50 [2]: 28.8 µM (active)
IC50 [17]: > 69.5 µM (inactive)
AC50 [5]: 46 µM (active)
AC50 [6]: 58.1 µM (active)

COc1cccc(S(=O)(=O)Nc2ccc3c(c2)[C@@H]2C[C@@H](CC(=O)NCc4ccc(Cl)cc4)O[C@@H](CO)[C@@H]2O3)c1
AC50 [27]: 60.3 µM (active)
AC50 [28]: 25.9 µM (active)
AC50 [29]: 3.36 µM (active)

NC(Cc1ccccc1)c1csc(Nc2ccc(C(=O)NCCO)cc2)n1 (stereo unspecified)
EC50 [22]: > 29.9 µM (inactive)
IC50 [23]: > 29.9 µM (inactive)
IC50 [24]: > 29.9 µM (inactive)
EC50 [25]: 4.32 µM (active)

COc1ccc2c(=O)c(N3C(=O)c4ccccc4C3=O)c(C)oc2c1
Ki [7]: > 66.7 µM (inactive)

Cc1cc(N/N=C/c2ccccc2O)nc(N2CCOCC2)n1
EC50 [22]: > 29.9 µM (inactive)
IC50 [23]: 2.52 µM (active)
IC50 [24]: > 29.9 µM (inactive)
EC50 [25]: > 29.9 µM (inactive)

— ChEMBL document CHEMBL1201862, “PubChem BioAssay data set” (2004)
